Reference: patent US4314061A, “Certain 3,6-bis-(heteroaminoalkoxy) acridines” (priority 1980, dated 1982)

Columns and labels:
circulating interferon = assay: Induction of circulating interferon in mice; assay type: in vivo, BDF1 mice; conditions: 300 mg/kg single oral
[1] = tested on: natural killer lymphocytes (NK cells); assay: Stimulation of NK-cell activity in normal mice
Columbia SK virus = assay: Protection of mice against lethal Columbia SK virus infection by oral pre-treatment; assay type: in vivo, random-bred Swiss male mice; conditions: 400 mg/kg oral
Method: At 24, 48, 72 and 96 hours after drug treatment, separate groups of mice were injected SC with an LD95 dose of the interferon sensitive virus, Columbia SK. […] Typically, protection from lethal infection with Columbia SK virus is associated with induction of interferon.

B-16 melanoma = assay: Potentiation of cyclophosphamide (Cytoxan) activity against B16 melanoma in mice; assay type: in vivo, BDF1 mice
Method: BDF1 male mice were inoculated subcutaneously with 0.25 ml. of a 10% B-16 melanoma homogenate. Cyclophosphamide was administered intraperitoneally at 80 mg./kg. the second day following the day of tumor implantation. Test compounds were given intraperitoneally on days +6, +8 and +10 relative to tumor implantation. […]
BDF1 male mice inoculated subcutaneously with 0.25 ml. of a 10% tumo
homogenate on day 0. Drugs were administered intraperitoneally;
cyclophosphoamide on day 2, 3,6bis(2-diethylaminoethoxy)acridine
trihydrochloride on days 6, 8 and 10.
^1 Number of survivors over number of mice treated.

[2] = tested on: Rauscher Virus-Induced Leukemia; assay: Inhibition of splenomegaly in mice with Rauscher virus-induced leukemia; assay type: in vivo, Balb/c mice
normal mouse bone marrow = assay: Effect on normal mouse bone marrow; assay type: in vivo, C57 BL6 male mice; conditions: 24 hours after treatment; test compound oral, Cytoxan intraperitoneal
Method: The effect of drugs on normal mouse bone marrow is evaluated by determining total cell counts of femurs and by the ability of surviving cells to form colonies in semi-solid medium. The test compound is administered orally and the reference drug Cytoxan is administered intraperitoneally to C57 BL6 male mice. One femur from each of three mice per dose level is assayed 24 hours after treatment. Counts of nucleated cells are performed on pooled marrow suspensions and the clonogenic assay is performed by plating 50,000 cells in one ml. of culture medium in each of four culture dishes. The medium to support bone marrow progenitor cell growth is McCoy's medium supplemented with 0.9% methocel, 1.8% human serum albumin, 10% bovine fetal serum and 10% "conditioned" L-cell medium. Cultures are incubated at 37° C. in a humidified atmosphere and colonies are counted at seven days.

Lewis lung carcinoma = assay: Surgical-adjuvant antitumor activity against Lewis lung carcinoma implanted subcutaneously in footpads; assay type: in vivo, BDF1 mice; conditions: for Average % of tumor weight inhibition / Average tumor weight: Day +11; for No. Survivors/No. Treated: at +90 days; for % Increased life-span: + significant (≥25%)
Method: BDF1 mice were inoculated subcutaneously in the right hind footpad with 5×10^5 viable Lewis Lung carcinoma cells, on day zero. […] A control group of mice received a saline placebo instead of drug, and another group of tumor bearing mice received the positive control drug cyclophosphamide, at 100 mg/kg, administered by intraperitoneal injection. On the 11th day after tumor implantation, the mice were anesthesized with Nembutal, and the tumor bearing feet surgically amputated above the ankle joint. The surgical incision was swabbed with alcohol and sealed with stainless steel wound clips. The tumor bearing feet were individually weighed and the average weight of a normal foot (determined by weighing amputated feet from non-tumor bearing mice of the same age, sex and body weight) was subtracted to obtain the weight of tumor tissue in the amputated foot. Mice were then observed for deaths until the 90th day after tumor implantation. […]
^1 BDF1 male mice inoculated subcutaneously in footpad with 5
× 10^5 Lewis lung tumor cells on day zero;
3,6bis(2-diethylaminoethoxy)acridine trihydrochloride administered orally
and Cyclophosphamide intraperitoneally, on days 1, 7, and 13 following
^2 Average tumor weight determined after surgical amputation of tumor
bearing foot on day 11 following tumor implantation.

[3] = tested on: Rauscher Virus-Induced Leukemia; assay: Restoration of antibody formation in mice with Rauscher virus-induced leukemia; assay type: in vivo, Balb/c mice; conditions: 100 mg/kg IP
[4] = 25 mg/kg i.p. + cyclophosphamide 80 mg/kg
[5] = 25 mg/kg i.p. + cyclophosphamide 80 mg/kg, day 21
[6] = 50 mg/kg i.p. + cyclophosphamide 80 mg/kg
[7] = 50 mg/kg i.p. + cyclophosphamide 80 mg/kg, day 21
[8] = 100 mg/kg i.p. + cyclophosphamide 80 mg/kg
[9] = 100 mg/kg i.p. + cyclophosphamide 80 mg/kg, day 21

CCN(CC)CCOc1ccc2cc3ccc(OCCN(CC)CC)cc3nc2c1.Cl.Cl.Cl
Induction of circulating interferon, in words (circulating interferon): induced the production of high levels of circulating interferon | Time of peak titers of interferon after drug administration (circulating interferon): 16 to 24 h | Serum interferon titer (circulating interferon; 0 hours): 10 units/ml | Serum interferon titer (circulating interferon; 8 hours): 100 units/ml | Serum interferon titer (circulating interferon; 16 hours): 3200 units/ml | Serum interferon titer (circulating interferon; 24 hours): 3200 units/ml | Serum interferon titer (circulating interferon; 32 hours): 2100 units/ml | Serum interferon titer (circulating interferon; 48 hours): 50 units/ml | Interferon titer 72 hours after drug treatment, in words (circulating interferon; 72 hours): at normal levels | Serum interferon titer (circulating interferon; 72 hours): 10 units/ml | % Cytotoxicity ([1]; Test 1 (CD1 mice), 75 mg/kg oral, ** p <.01): 29.5% | % Cytotoxicity ([1]; Test 1 (CD1 mice), 150 mg/kg oral, ** p <.01): 37.7% | % Cytotoxicity ([1]; Test 1 (CD1 mice), 300 mg/kg oral, * p <.05): 25.8% | % Cytotoxicity ([1]; Test 2 (BDF1 hybrids), 75 mg/kg oral, ** p <.01): 44.4% | % Cytotoxicity ([1]; Test 2 (BDF1 hybrids), 150 mg/kg oral, ** p <.01): 40.9% | % Cytotoxicity ([1]; Test 2 (BDF1 hybrids), 300 mg/kg oral, * p <.05): 38.2% | Stimulation of NK cell activity, in words ([1]; mouse, in vivo): active in this test | Survivors/Total (14 Days) (Columbia SK virus; -24 hr relative to virus challenge, * p <.01): 19/20 | Survivors/Total (14 Days) (Columbia SK virus; -48 hr relative to virus challenge, * p <.01): 10/20 | Survivors/Total (14 Days) (Columbia SK virus; -72 hr relative to virus challenge): 1/20 | Survivors/Total (14 Days) (Columbia SK virus; -96 hr relative to virus challenge): 1/20 | ILS (Percent increase in life span over control) (B-16 melanoma; [4]): 31% | MST (Median Survival Time) (B-16 melanoma; [4]): 29.5 days | Average tumor weight (B-16 melanoma; [5]): 2029 mg | Number of survivors over number of mice treated (B-16 melanoma; [5]): 8/8 | Number of survivors over number of mice treated (B-16 melanoma; 25 mg/kg i.p. + cyclophosphamide 80 mg/kg, day 26): 6/8 | Average tumor weight (B-16 melanoma; 25 mg/kg i.p. + cyclophosphamide 80 mg/kg, day 26, p <0.05 vs cyclophosphamide alone and vs either drug alone): 3125 mg | ILS (Percent increase in life span over control) (B-16 melanoma; 25 mg/kg i.p. alone): 27% | MST (Median Survival Time) (B-16 melanoma; 25 mg/kg i.p. alone): 28.5 days | Average tumor weight (B-16 melanoma; 25 mg/kg i.p. alone, day 21): 2625 mg | Number of survivors over number of mice treated (B-16 melanoma; 25 mg/kg i.p. alone, day 21): 7/8 | Number of survivors over number of mice treated (B-16 melanoma; 25 mg/kg i.p. alone, day 26): 5/8 | Average tumor weight (B-16 melanoma; 25 mg/kg i.p. alone, day 26, p <0.05 vs untreated): 6303 mg | ILS (Percent increase in life span over control) (B-16 melanoma; [6]): 27% | MST (Median Survival Time) (B-16 melanoma; [6]): 28.5 days | Average tumor weight (B-16 melanoma; [7]): 2041 mg | Number of survivors over number of mice treated (B-16 melanoma; [7]): 8/8 | Number of survivors over number of mice treated (B-16 melanoma; 50 mg/kg i.p. + cyclophosphamide 80 mg/kg, day 26): 7/8 | Average tumor weight (B-16 melanoma; 50 mg/kg i.p. + cyclophosphamide 80 mg/kg, day 26, p <0.05 vs cyclophosphamide alone): 4258 mg | ILS (Percent increase in life span over control) (B-16 melanoma; 50 mg/kg i.p. alone): 18% | MST (Median Survival Time) (B-16 melanoma; 50 mg/kg i.p. alone): 26.5 days | Number of survivors over number of mice treated (B-16 melanoma; 50 mg/kg i.p. alone, day 21): 7/8 | Average tumor weight (B-16 melanoma; 50 mg/kg i.p. alone, day 21, p <0.05 vs untreated): 2168 mg | Number of survivors over number of mice treated (B-16 melanoma; 50 mg/kg i.p. alone, day 26): 4/8 | Average tumor weight (B-16 melanoma; 50 mg/kg i.p. alone, day 26, p <0.05 vs untreated): 3111 mg | ILS (Percent increase in life span over control) (B-16 melanoma; [8]): 22% | MST (Median Survival Time) (B-16 melanoma; [8]): 27.5 days | Average tumor weight (B-16 melanoma; [9]): 1532 mg | Number of survivors over number of mice treated (B-16 melanoma; [9]): 8/8 | Number of survivors over number of mice treated (B-16 melanoma; 100 mg/kg i.p. + cyclophosphamide 80 mg/kg, day 26): 5/8 | Average tumor weight (B-16 melanoma; 100 mg/kg i.p. + cyclophosphamide 80 mg/kg, day 26, p <0.05 vs cyclophosphamide alone): 2836 mg | ILS (Percent increase in life span over control) (B-16 melanoma; 100 mg/kg i.p. alone): 22% | MST (Median Survival Time) (B-16 melanoma; 100 mg/kg i.p. alone): 27.5 days | Number of survivors over number of mice treated (B-16 melanoma; 100 mg/kg i.p. alone, day 21): 7/8 | Average tumor weight (B-16 melanoma; 100 mg/kg i.p. alone, day 21, p <0.05 vs untreated): 1892 mg | Number of survivors over number of mice treated (B-16 melanoma; 100 mg/kg i.p. alone, day 26): 7/8 | Average tumor weight (B-16 melanoma; 100 mg/kg i.p. alone, day 26, p <0.05 vs untreated): 4127 mg | inhibition in local tumor growth (B-16 melanoma; in combination with Cytoxan, i.p., day +26): 50% | 50% inhibition in local tumor growth, in words (B-16 melanoma; monotherapy, i.p., day +26): failed to do so | % Reduction in splenomegaly ([2]; 50 mg/kg): 68% | % Reduction in splenomegaly ([2]; 100 mg/kg): 71% | Effect on total nucleated cell count of femur marrow, in words (normal mouse bone marrow): minimal effects on the total nucleated cell count | Median survival time (Lewis lung carcinoma; 50 mg/kg oral): > 90.0 days | Average % of tumor weight inhibition (Lewis lung carcinoma; 50 mg/kg oral): 38% | Average tumor weight (Lewis lung carcinoma; 50 mg/kg oral): 236 mg | No. Survivors/No. Treated (Lewis lung carcinoma; 50 mg/kg oral): 8/12 | % Increased life-span (Lewis lung carcinoma; 50 mg/kg oral): > 200% | Median survival time (Lewis lung carcinoma; 100 mg/kg oral): > 90.0 days | Average % of tumor weight inhibition (Lewis lung carcinoma; 100 mg/kg oral): 46% | Average tumor weight (Lewis lung carcinoma; 100 mg/kg oral): 203 mg | No. Survivors/No. Treated (Lewis lung carcinoma; 100 mg/kg oral, ** p < .05): 9/12 | % Increased life-span (Lewis lung carcinoma; 100 mg/kg oral): > 200% | Median survival time (Lewis lung carcinoma; 200 mg/kg oral): > 90.0 days | Average tumor weight (Lewis lung carcinoma; 200 mg/kg oral): 38 mg | Average % of tumor weight inhibition (Lewis lung carcinoma; 200 mg/kg oral, * significant (≥58%)): 90% | No. Survivors/No. Treated (Lewis lung carcinoma; 200 mg/kg oral, ** p < .05): 12/12 | % Increased life-span (Lewis lung carcinoma; 200 mg/kg oral): > 200% | Median survival time (Lewis lung carcinoma; 300 mg/kg oral): > 90.0 days | Average tumor weight (Lewis lung carcinoma; 300 mg/kg oral): 56 mg | Average % of tumor weight inhibition (Lewis lung carcinoma; 300 mg/kg oral, * significant (≥58%)): 85% | No. Survivors/No. Treated (Lewis lung carcinoma; 300 mg/kg oral, ** p < .05): 10/12 | % Increased life-span (Lewis lung carcinoma; 300 mg/kg oral): > 200% | Median survival time (Lewis lung carcinoma; 400 mg/kg oral): > 90.0 days | Average tumor weight (Lewis lung carcinoma; 400 mg/kg oral): 17 mg | Average % of tumor weight inhibition (Lewis lung carcinoma; 400 mg/kg oral, * significant (≥58%)): 96% | No. Survivors/No. Treated (Lewis lung carcinoma; 400 mg/kg oral, ** p < .05): 10/12 | % Increased life-span (Lewis lung carcinoma; 400 mg/kg oral): > 200% | Serum hemagglutinin titer/saline control titer [3]: 512/32
